Assay results from patent EP3175850B1, “PHARMACEUTICAL COMPOSITION FOR ALLEVIATING OR TREATING GOUT AND USES THEREOF” (Industrial Technology Research Institute, priority 2014, dated 2016).

Experiments:
Type in all cases: in vivo
interleukin-1β (mIL-1β) = assay: Mouse air pouch model (MSU crystal-induced): IL-1β content of exudate by ELISA; conditions: Example 4, Figure 3; topical 100 mg paste/mouse (5 mg total active) 15 hours prior to MSU; exudate 5 hours after MSU
Experimental: (§1) Mouse Air pouch model: this mouse model may be referenced to the methods and the experimental details as in the published article "Role of S100A8 and S100A9 in neutrophil recruitment in response to monosodium urate monohydrate crystals in the air-pouch model of acute gouty arthritis", Arthritis Rheum 2003 Aug, 48(8):2310-20.
(§2) Before the experiment, the mice are shaved to remove back hair. At day 0 sterile filtered air (2 ml/per mouse) is injected through 0.22 µm microfilter to the back of each mouse subcutaneously, so that a pseudosynovial cavity is formed in each mouse. At day 3, an air booster (3 ml/mouse) is again given to each mouse, so that the air pouch is maintained round. Later, the mice are weighed and grouped so that the average weight of the mice in each group is about the same. At day 6 monosodium urate (MSU) crystal suspension (5 mg in 2 ml/per mouse) is injected into the air pouch. Topical application of the paste (100 mg paste/per mouse) is administrated 15 hours prior to MSU stimulation. At a specific time (5 hours) after the injection of MSU, the mice were euthanized with an excess of carbon dioxide, 2 ml PBS per mouse is injected into the air pouch, and the air pouch is carefully cut to collect the exudate. The collected exudate is subjected to the centrifugation at 1,000 rpm, 4°C for 5 minutes, and the supernatant is then placed in a 96-well plate and stored at -20°C. […]

interleukin-6 (mIL-6) = assay: Mouse air pouch model (MSU crystal-induced): IL-6 content of exudate by ELISA; conditions: Example 4, Figure 4; topical 100 mg paste/mouse (5 mg total active) 15 hours prior to MSU; exudate 5 hours after MSU
Experimental: as §1, §2

[1] = test system: neutrophil cell (CD45^+/Ly6G^+ cells); assay: Mouse air pouch model (MSU crystal-induced acute gouty arthritis): neutrophil cell density in exudate by flow cytometry; conditions: Example 4, Table 3; for INHIBITION RATE (neutrophil cell density): CD45^+/Ly6G^+ cells, vs blank control, topical 100 mg paste/mouse (5 mg total active); for AVERAGE VALUES (normalized cell density, neutrophil CD45^+/Ly6G^+ cells): topical 100 mg paste/mouse (5 mg total active) 15 hours prior to MSU, exudate 5 hours after MSU, blank control 360
Experimental: as §1
(§3) Before the experiment, the mice are shaved to remove back hair. At day 0 sterile filtered air (2 ml/per mouse) is injected through 0.22 µm microfilter to the back of each mouse subcutaneously, so that a pseudosynovial cavity is formed in each mouse. At day 3, an air booster (3 ml/mouse) is again given to each mouse, so that the air pouch is maintained round. Later, the mice are weighed and grouped so that the average weight of the mice in each group is about the same. At day 6 monosodium urate (MSU) crystal suspension (5 mg in 2 ml/per mouse) is injected into the air pouch. Topical application of the paste (100 mg paste/per mouse) is administrated 15 hours prior to MSU stimulation. At a specific time (5 hours) after the injection of MSU, the mice were euthanized with an excess of carbon dioxide, 2 ml PBS per mouse is injected into the air pouch, and the air pouch is carefully cut to collect the exudate. The collected exudate is subjected to the centrifugation at 1,000 rpm, 4°C for 5 minutes, and the supernatant is then placed in a 96-well plate and stored at -20°C. An ELISA kit (purchased from R&D Systems) is used to analyze the contents of IL-1β and IL-6 in the exudate. The precipitate is resuspended and reacted with 1 ml red blood cell lysis buffer (RBC lysis buffer) for one minute to remove the red blood cells, followed by adding 1 ml PBS to terminate the reaction, centrifuged at 1,000 rpm, 25°C for 5 minutes, and the supernatant is discarded. The precipitate is then resuspended in 1 ml PBS as the cell suspension and the cell suspension is filtered by filter membrane (BD Falcon 100 µm Nylon filter strainer) and the filtered cell suspension is dispensed into several tubes (0.25 ml/tube) for subsequent cell counting or for labelling with various differentiation antigen markers (such as cluster of differentiation (CD) markers). The flow cytometry is used for cell counting of the various cells.
(§4) In order to investigate the anti-gout efficacy of AG02-RA1 and AG04-RA1, either used alone or in combination, the experiments are performed to test AG02-RA1 alone, AG04-RA1 alone and the combination(s) of AG02-RA1 :AG04-RA1 in the ratio of 50:50 (Composition Nos. 1, 2 and 3 as shown in Table 1). The total weight of the content of AG02-RA1 and/or AG04-RA1 is 5 mg, accounting for 5 % of the total weight of the test sample paste composition. […]

[2] = test system: leukocyte cell (CD45^+ cells); assay: Mouse air pouch model (MSU crystal-induced acute gouty arthritis): leukocyte cell density in exudate by flow cytometry; conditions: for AVERAGE VALUES (normalized leukocyte cell density): Example 4, Table 2, topical 100 mg paste/mouse (5 mg total active) 15 hours prior to MSU, exudate 5 hours after MSU, blank control 803; for INHIBITION RATE (leukocyte cell density): Example 4, Table 2, vs blank control, topical 100 mg paste/mouse (5 mg total active) 15 hours prior to MSU, 5 hours after MSU
Experimental: as §1, §3, §4

**Q.** What does the source list for `CC(=O)OCC=Cc1ccc(OC(C)=O)cc1` [AG04-RA1, 4-(3-acetoxy-propenyl)-phenyl acetate]?
**A.** inhibition rate of interleukin-1β secretion (interleukin-1β (mIL-1β)): > 50%; inhibition rate of interleukin-6 secretion (interleukin-6 (mIL-6)): > 50%; INHIBITION RATE (neutrophil cell density) [1]: 43%; AVERAGE VALUES (normalized cell density, neutrophil CD45^+/Ly6G^+ cells) [1]: 205 cells*10^3/ml; AVERAGE VALUES (normalized leukocyte cell density) [2]: 670 cells* 10^3/ml; INHIBITION RATE (leukocyte cell density) [2]: 17%

**Q.** With “3,7,11,15(17)-cembratetraene-16,2:19,6-diolide-3484-37-5(3E,12E)-3,12-dimethyl-8-methylene-6,18-dioxa-tricyclo[14.2.1.0.5,9]nonadeca-3,12,16(19)-triene-7,17-dione [AG02-RA1]” as the compound, how does the “INHIBITION RATE (neutrophil cell density)” value [1] read?
**A.** 63%

**Q.** And the “AVERAGE VALUES (normalized cell density, neutrophil CD45^+/Ly6G^+ cells)” value [1]?
**A.** 133 cells*10^3/ml

**Q.** And the “AVERAGE VALUES (normalized leukocyte cell density)” value [2]?
**A.** 1609 cells* 10^3/ml

**Q.** What about the “INHIBITION RATE (leukocyte cell density)” value [2] of the same compound?
**A.** -100%
